# Literature values as cited in patent US20140044668A1, “Methods for Predicting Cardiovascular Risks and Responsiveness to Statin Therapy Using SNPs” (THE OHIO STATE UNIVERSITY, priority 2011, published 2014).
# Biological target: T1, CETP (Homo sapiens, UniProt P11597)
# T1 sequence (P11597 18-493): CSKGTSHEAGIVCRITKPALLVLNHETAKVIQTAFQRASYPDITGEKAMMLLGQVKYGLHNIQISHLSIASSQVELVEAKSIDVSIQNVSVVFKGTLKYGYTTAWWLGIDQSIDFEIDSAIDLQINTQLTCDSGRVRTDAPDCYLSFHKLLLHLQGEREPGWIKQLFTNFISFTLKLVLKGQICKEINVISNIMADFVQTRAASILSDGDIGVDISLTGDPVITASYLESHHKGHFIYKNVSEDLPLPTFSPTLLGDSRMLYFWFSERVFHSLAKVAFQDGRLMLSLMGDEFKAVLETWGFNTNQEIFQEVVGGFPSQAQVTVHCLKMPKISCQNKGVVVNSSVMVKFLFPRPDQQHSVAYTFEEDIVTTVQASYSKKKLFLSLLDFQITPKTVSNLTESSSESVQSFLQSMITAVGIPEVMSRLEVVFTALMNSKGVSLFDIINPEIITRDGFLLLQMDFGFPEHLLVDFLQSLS
# Conditions: in vivo
structure (smiles),measurement,value
CCOC(=O)N1c2ccc(C(F)(F)F)cc2[C@@H](N(Cc2cc(C(F)(F)F)cc(C(F)(F)F)c2)C(=O)OC)C[C@H]1CC [torcetrapib],HDL,HDL increased
same,LDL,LDL decreased substantially
same,cardiovascular events,increase cardiovascular events
